Common to all, as to format: biochemical
One test concerns the target JNK3 (Homo sapiens, UniProt P53779). Briefly: JNK3 kinase DELFIA (phosphorylation of biotinylated GST-ATF2). The note with it: final ATP 2 uM. Here is the method: (§1) Before initiation of kinase reactions, compounds were pre-incubated with the enzyme for 10 minutes. Pre-incubation reactions contained 50 mM HEPES pH 7.3, 10 mM MgCl2, 1 mM DTT, 75 mM NaCl, 1 mM EDTA, 1 mM EGTA, 0.01% CHAPS, 2 nM JNK1, 6 ug/mL biotinylated GST-ATF2, 0.1 mg/ml BSA, 5% DMSO and 0-100 μM compound in a total volume of 40 μL. After a 10 minute room temperature pre-incubation, 10 μL of 35 μM ATP was added to start the reaction (final concentration of ATP=7 uM). Reactions were incubated at room temperature for 30 minutes. A small aliquot (10 uL) was taken and quenched by adding into 190 uL of DELFIA Assay buffer containing 100 mM EDTA. The amount of phosphate transferred to biotinylated GST-ATF2 was measured using the Dissociation Enhanced Lanthanide Fluorescence Immuno-assay (DELFIA) from Perkin Elmer according to manufacturers protocol. Briefly, biotinylated GST-ATF2 was captured on streptavidin coated plates for 1 hour, washed twice, then incubated for 1 hour with a 1:1000 dilution of rabbit-anti-phospho-ATF2 antibody and a 1:3500 dilution of Europium-labeled anti-rabbit secondary antibody. Free antibody was removed with six washes, Europium was dissociated from the antibody, and Europium fluorescence was measured using an excitation wavelength of 340 nm and an emission wavelength of 615 nm. JNK2 and JNK3 kinase reactions were carried out similarly, with the exception that the final concentration of ATP was 4 uM and 2 uM, respectively.

For the next test, the target named is JNK1 (Homo sapiens, UniProt P45983). Nature of the test: JNK1 kinase DELFIA (phosphorylation of biotinylated GST-ATF2). How it is done:
as §1

Another test has as its target JNK2 (Homo sapiens, UniProt P45984). Nature of the test: JNK2 kinase DELFIA (phosphorylation of biotinylated GST-ATF2). The note with it: final ATP 4 uM, reported as range for a group. How it is done:
as §1

Setting [1] is: DELFIA, 2 nM JNK1, final ATP 7 uM, 10 min pre-incubation, reported as range for a group.

Several values for one entry are separate records, joined by “and”; a condition that tells them apart may be missing. Equal values may be shown once. Read-outs that look alike come from different tables or passages of the source.

Broadly, the IC50 is the concentration that inhibits the measured activity by half.

JNK3, sequence (P53779 whole entry, species assumed): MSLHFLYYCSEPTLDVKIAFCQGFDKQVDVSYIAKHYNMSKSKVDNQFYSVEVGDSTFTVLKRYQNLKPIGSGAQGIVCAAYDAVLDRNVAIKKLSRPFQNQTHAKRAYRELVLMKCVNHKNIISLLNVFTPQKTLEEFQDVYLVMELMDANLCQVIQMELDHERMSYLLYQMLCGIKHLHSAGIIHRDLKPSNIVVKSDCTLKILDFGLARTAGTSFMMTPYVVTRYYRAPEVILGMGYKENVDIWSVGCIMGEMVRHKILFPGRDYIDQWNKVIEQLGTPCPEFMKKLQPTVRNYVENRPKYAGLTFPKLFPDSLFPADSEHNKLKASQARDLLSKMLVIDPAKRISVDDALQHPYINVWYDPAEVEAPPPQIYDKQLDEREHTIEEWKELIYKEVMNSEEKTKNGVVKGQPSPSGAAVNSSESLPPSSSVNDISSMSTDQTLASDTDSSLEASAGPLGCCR
JNK2, sequence (P45984 whole entry, species assumed): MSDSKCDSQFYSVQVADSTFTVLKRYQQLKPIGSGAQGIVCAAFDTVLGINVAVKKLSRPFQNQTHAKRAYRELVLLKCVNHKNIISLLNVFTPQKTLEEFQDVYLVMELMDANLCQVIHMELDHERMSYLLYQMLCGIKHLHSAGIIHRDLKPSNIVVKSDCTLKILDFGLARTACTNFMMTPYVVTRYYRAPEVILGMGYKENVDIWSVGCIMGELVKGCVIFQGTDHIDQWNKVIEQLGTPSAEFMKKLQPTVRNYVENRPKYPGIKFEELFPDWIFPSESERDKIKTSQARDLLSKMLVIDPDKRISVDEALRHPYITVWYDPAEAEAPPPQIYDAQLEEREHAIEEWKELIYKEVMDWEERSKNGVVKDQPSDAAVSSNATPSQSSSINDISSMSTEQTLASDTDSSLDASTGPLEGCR
JNK1, sequence (P45983 whole entry, species assumed): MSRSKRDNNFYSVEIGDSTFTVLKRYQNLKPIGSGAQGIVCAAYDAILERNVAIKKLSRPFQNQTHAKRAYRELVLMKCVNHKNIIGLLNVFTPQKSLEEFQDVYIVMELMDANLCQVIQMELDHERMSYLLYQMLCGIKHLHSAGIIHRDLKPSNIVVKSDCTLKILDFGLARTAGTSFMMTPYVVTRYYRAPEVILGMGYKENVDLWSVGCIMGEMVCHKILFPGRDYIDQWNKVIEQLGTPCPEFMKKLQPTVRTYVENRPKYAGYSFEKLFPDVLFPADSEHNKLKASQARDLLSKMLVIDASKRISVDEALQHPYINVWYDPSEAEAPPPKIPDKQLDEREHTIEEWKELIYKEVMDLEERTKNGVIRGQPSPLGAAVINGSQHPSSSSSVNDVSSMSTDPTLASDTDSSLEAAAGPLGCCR

Regarding `CC(C)C[C@@H](CO)NC(=O)c1c(-c2ccsc2)nc2c(C(=O)NCc3ccc(N)nc3)cccn12` [Compound 327], the IC50 at JNK3 lay within 0.054 to 0.098 µM; on JNK1 (setting [1]), 0.006 to 0.1 µM; against JNK2, 0.004 to 0.046 µM.

Take `CC(C)C[C@@H](CO)NC(=O)c1c(-c2ccccc2)nc2c(C(=O)NCc3ccc4nc(N)sc4c3)cccn12` [Compound 451]: the IC50 at JNK3 fell in the range of 0.009 to 0.05 µM; against JNK1 (setting [1]), 0.006 to 0.1 µM; on JNK2, 0.004 to 0.046 µM.

Consider `CC(C)C[C@@H](CO)NC(=O)c1c(-c2ccc(F)cc2)nc2c(C(=O)NCc3ccc4nc(N)sc4c3)cccn12` [Compound 452], for which the results for the IC50 at JNK3, against JNK1 (setting [1]) and against JNK2 were 0.054 to 0.098 µM, 0.006 to 0.1 µM and 0.052 to 0.094 µM, respectively.

For `CCc1nc2c(C(=O)NCc3ccc4nc(N)sc4c3)cccn2c1C(=O)N[C@H](CO)CC(C)C` [Compound 456], the IC50 against JNK3 was in the range of 0.009 to 0.05 µM; at JNK1 (setting [1]), 0.006 to 0.1 µM; against JNK2, 0.004 to 0.046 µM.

`CCc1nc2c(C(=O)NCc3ccc4nc(C)n(C)c4c3)cccn2c1C(=O)N[C@H](CO)CC(C)C` [Compound 463]: the half-maximal inhibitory concentration (IC50) against JNK3 was in the range of 0.009 to 0.05 µM; on JNK1 (setting [1]) it was 0.006 to 0.02 µM; against JNK2 it was 0.004 to 0.046 µM.

Take `CC(C)C[C@@H](CO)NC(=O)c1c(-c2ccccn2)nc2c(C(=O)NCc3ccc4nc(N)sc4c3)cccn12` [Compound 478]: the IC50 on JNK3 was 0.009 to 0.05 µM; against JNK1 (setting [1]), 0.006 to 0.1 µM and 0.006 to 0.02 µM and 0.006 to 0.01 µM; on JNK1 (read-out: JNK 1 IC50), 0.01 µM; against JNK2, 0.004 to 0.046 µM.

For the compound `Cc1nc2ccc(CNC(=O)c3cccn4c(C(=O)N[C@H](CO)CC(C)C)c(-c5ccccn5)nc34)cc2[nH]1` [Compound 479], the IC50 was 0.009 to 0.05 µM at JNK3; 0.006 to 0.1 µM and 0.006 to 0.02 µM and 0.006 to 0.01 µM against JNK1 (setting [1]); 0.004 to 0.046 µM against JNK2.

For `Cc1nc2ccc(CNC(=O)c3cccn4c(C(=O)N[C@H](CO)CC(C)C)c(-c5ccccn5)nc34)cc2n1C` [Compound 483], the IC50 against JNK3 is 0.009 to 0.05 µM; at JNK1 (setting [1]), 0.006 to 0.1 µM and 0.006 to 0.02 µM; at JNK1 (read-out: JNK 1 IC50), 0.011 µM; against JNK2, 0.004 to 0.046 µM.

For the compound `CC(C)C[C@@H](CO)NC(=O)c1c(-c2cccs2)nc2c(C(=O)NCc3ccc4nc(N)sc4c3)cccn12` [Compound 542], the IC50 against JNK3 lay in the range of 0.009 to 0.05 µM; against JNK1 (setting [1]), 0.006 to 0.1 µM; at JNK2, 0.004 to 0.046 µM.

As to `CC(C)C[C@@H](CO)NC(=O)c1c(-c2cc(F)cc(F)c2)nc2c(C(=O)NCc3ccc4nc(N)sc4c3)cccn12` [Compound 544], the IC50 is 0.009 to 0.05 µM against JNK3, 0.006 to 0.1 µM against JNK1 (setting [1]), 0.023 µM on JNK1 (read-out: JNK 1 IC50) and 0.004 to 0.046 µM against JNK2.

Regarding `Cc1nc2ccc(CNC(=O)c3cccn4c(C(=O)N[C@H](CO)CC(C)C)c(C)nc34)cc2[nH]1` [Compound 599], the IC50 on JNK3 was 0.009 to 0.05 µM; against JNK1 (setting [1]), 0.006 to 0.1 µM; against JNK2 it was 0.004 to 0.046 µM.

As to `Cc1cccc(-n2cc(CNC(=O)c3cccn4c(C(=O)N[C@H](CO)CC(C)C)cnc34)cn2)c1` [Compound 605], the IC50 at JNK3 was 0.009 to 0.05 µM; against JNK1 (setting [1]), 0.006 to 0.1 µM; at JNK1 (read-out: JNK 1 IC50), 0.021 µM; at JNK2, 0.004 to 0.046 µM.

The values are drawn from patent US20100298314A1, “NOVEL JNK INHIBITORS” (Schering Corporation, priority 2006, published 2010).
